Data published in patent US20190316081A1, “MEDIA AND METHODS FOR EXPANSION OF PLURIPOTENT STEM CELLS” (priority 2018, published 2019).

How the values were obtained:
Type in all cases: cell-based, human
[1] = system: 5i-hPSC; assay: Medium component screen and PD dose response on OCT4/SOX2 pluripotent phenotype, feeder-free adherent and suspension
Protocol: For intracellular staining, dissociated cells were fixed with 4% paraformadehyde (Electron Microscopy Sciences) for 10 minutes and permeabilized with 0.1% Triton™ X-100 (Sigma-Aldrich). Cells were then stained with the primary antibody (OCT4, BD Biosciences; SOX2, R&D; FOXA2, Abnova; cTNT, Thermo Fisher Scientific; TUBB3, Cell Signaling; PDX1, R&D; NKX6.1, DSHB) for 25 minutes followed by the secondary antibody for 25 minutes at 4° C. Stained cells were analyzed on a FACSCanto™ II (BD) or FACS Fortessa™ (BD) flow cytometer.
Statistical analysis was performed using the JMP software (SAS). Parametric tests were used for qpcr, doubling time, and maximum density experiments, with the Student's T-test used for 2 treatment experiments and Tukey's HSD test used for experiments with 3 or more treatments. A non-parametric test (Kruskal-Wallis) was used for colony formation experiments since this assay was developed specifically for this study. […] The linear regression model was developed in Excel (Microsoft®).
To test this hypothesis, a 96 well plate platform was designed to screen the effects of medium components on 5i-hPSC pluripotency in suspension cultures and in feeder-free adherent cultures (FIG. 8A). To examine the effects of adherent culture on pluripotency, a Geltrex™ coating was used to obtain an adherent culture condition in the absence of a feeder layer. […]

[2] = system: PSC; assay: Karyotype and germ layer differentiation of DS treated PSC
Protocol: Six well culture plates were pre-coated with 5% Pluronic F-68® (Thermo Fisher Scientific) for 30 minutes at 37° C. or overnight at 4° C. Dissociation of PSC to single cells was carried out by TrypLE™ Express (Thermo Fisher Scientific) treatment for 5 minutes at room temperature. […] Cells were seeded at densities of 2×10^5 cells/mL unless otherwise noted. Medium was exchanged by angling the plate at a 45° angle and allowing aggregates to settle onto the bottom edge. Two days after seeding, half of the growth medium was removed and replaced each day. Cells were harvested at the end of culture by dissociation with a 5 minute TrypLE™ treatment at 37° C. and cell counts were performed by Trypan Blue exclusion (Thermo Fisher Scientific). […] Aggregates were dissociated and seeded into adherent conditions after 3 passages in suspension with DS. Directed differentiation into all three germ layers was performed as described previously for endoderm^40, mesoderm^41, and ectoderm^42 lineages. G-Band karyotyping was performed by WiCell.

[3] = system: H9 hPSC; assay: Aggregation control by DS in conventional and naive conditions; conditions: conventional and naive pluripotent states
[4] = system: HES2 and H9 cell lines; assay: 4i suspension culture supplemented with dextran sulfate; conditions: dextran sulfate at seeding
Protocol: HES2 and H9 hPSC were cultured in adherent conditions in 5i medium for >5 passages. Cells were dissociated with TrypLE™ as described previously and seeded as single cells into 4i medium in the presence of ROCK inhibitor into orbital shaker suspension culture plates (pre-treated with 5% Pluronic® F-68) in the presence of dextran sulfate at seeding. Half of the medium volume was exchanged every day starting on the second day by tilting the plate at a 45 degree angle and allowing cells to settle before removing half of the medium and replenishing it with fresh 4i medium without dextran sulfate.

[5] = system: PSC (HES2); assay: Stirred tank bioreactor suspension culture of PSC with dextran sulfate; conditions: stirred tank bioreactors seeded with DS, 3 passages
Protocol: Six well culture plates were pre-coated with 5% Pluronic F-68® (Thermo Fisher Scientific) for 30 minutes at 37° C. or overnight at 4° C. Dissociation of PSC to single cells was carried out by TrypLE™ Express (Thermo Fisher Scientific) treatment for 5 minutes at room temperature. Single cells were seeded into the Pluronic F-68® coated 6-well plates that were then placed on an orbital shaker with 10 μM Y-27632 (Reagents Direct) in normoxic (21% 02) conditions. Cells were seeded at densities of 2×10^5 cells/mL unless otherwise noted. Medium was exchanged by angling the plate at a 45° angle and allowing aggregates to settle onto the bottom edge. Two days after seeding, half of the growth medium was removed and replaced each day. Cells were harvested at the end of culture by dissociation with a 5 minute TrypLE™ treatment at 37° C. and cell counts were performed by Trypan Blue exclusion (Thermo Fisher Scientific). Bioreactor experiments were conducted following manufacturer instructions for operating the Ambr™-24 bioreactor system (Sartorius). Cell dissociation and medium exchange were performed as described above. […] Aggregates were analyzed using the Mastersizer™ 3000 particle analyzer (Malvern) according to manufacturer's instructions. […]
Apoptosis analysis was conducted using Annexin V staining. […] Cells were analyzed on a FACS Canto™ II (BD) or FACS Fortessa™ (BD) flow cytometer. […]

[6] = system: PSC (HES2); assay: Orbital shaker suspension culture of PSC aggregates with dextran sulfate; conditions: for aggregate control properties in PSC: data not shown
Protocol: In brief, HES2 were cultured on Geltrex™ LDEV-Free Reduced Growth Factor Basement Membrane Matrix (Thermo Fisher Scientific, 1:50 dilution in DMEM) coated plates in Nutristem® hESC XF Culture Medium (Biological Industries, “NS”) or E8 Medium (Thermo Fisher Scientific), supplemented with 1× Penicillin-Streptomycin (Thermo Fisher Scientific). Plates were coated with Geltrex™ for 30 minutes at 37° C. Cells were passaged 1:24 every 6 days by dissociation with TrypLE™ Express (Thermo Fisher Scientific) at 37° C. for 4-5 minutes. All cell line stocks were confirmed negative for mycoplasma contamination. Conversion to a “naïve” hPSC state was performed as described previously^35. Dextran sulfate compounds (DS, Sigma) were prepared by dilution in deionized water at a stock concentration of 100 mg/mL followed by filter sterilization.
Six well culture plates were pre-coated with 5% Pluronic F-68® (Thermo Fisher Scientific) for 30 minutes at 37° C. or overnight at 4° C. Dissociation of PSC to single cells was carried out by TrypLE™ Express (Thermo Fisher Scientific) treatment for 5 minutes at room temperature. Single cells were seeded into the Pluronic F-68® coated 6-well plates that were then placed on an orbital shaker with 10 μM Y-27632 (Reagents Direct) in normoxic (21% 02) conditions. Cells were seeded at densities of 2×10^5 cells/mL unless otherwise noted. Medium was exchanged by angling the plate at a 45° angle and allowing aggregates to settle onto the bottom edge. Two days after seeding, half of the growth medium was removed and replaced each day. Cells were harvested at the end of culture by dissociation with a 5 minute TrypLE™ treatment at 37° C. and cell counts were performed by Trypan Blue exclusion (Thermo Fisher Scientific). Bioreactor experiments were conducted following manufacturer instructions for operating the Ambr™-24 bioreactor system (Sartorius). Cell dissociation and medium exchange were performed as described above. Bioreactors were operated at 450 rpm and seeded with 4×10^5 cells/mL unless otherwise noted. Aggregates were analyzed using the Mastersizer™ 3000 particle analyzer (Malvern) according to manufacturer's instructions. Unless otherwise noted, the 560 μm aperture was used for analysis. Aggregates were dissociated and seeded into adherent conditions after 3 passages in suspension with DS. Directed differentiation into all three germ layers was performed as described previously for endoderm^40, mesoderm^41, and ectoderm^42 lineages. G-Band karyotyping was performed by WiCell.
Statistical analysis was performed in Excel software (Microsoft®). […] Coefficient of variation was calculated by estimating the volume of each aggregate from its diameter, calculating the standard deviation of each treatment, and normalizing to the mean. […]

Which “correlation of PD level to pluripotent phenotype” value ([1]; feeder-free adherent and suspension) does the source give for O=C(NOC[C@H](O)CO)c1ccc(F)c(F)c1Nc1ccc(I)cc1F [PD, N-[(2R)-2,3-dihydroxypropoxy]-3,4-difluoro-2-[(2-fluoro-4-iodophenyl)amino]-benzamide] here?
The value was “negatively correlated”.

And the “linear regression coefficient of PD level on OCT4/SOX2 expression” value ([1]; model with growth format and interaction, 56 observations)?
Its value is −27.0584.

How did the karyotype ([2]; 9 passages (5 adherent, 4 suspension)) turn out when dextran sulfate [DS] was run?
The karyotype was “retained a normal karyotype”.

What about the “differentiation to three germ layers” value ([2]; after 9 passages with DS) of the same compound?
Its value is “maintained the ability to differentiate to cell types from all three germ layers”.

What about the control of aggregation [3] of the same compound?
Its control of aggregation is “able to control H9 hPSC aggregation in both pluripotent states”.

And the “mean aggregate size and variance relative to untreated conditions” value [4]?
Its value is “both observed to decrease”.

And the “expression of pluripotency markers Oct4 and Sox2” value [5]?
Its value is greater than 85%.

And the “homogeneity of aggregate sizes” value ([6]; orbital shaker, 4 days)?
The value was “reduced standard deviations and lower coefficients of variation of aggregate volume”.

And the aggregate diameter ([6]; orbital shaker, DS of 4, 15 and 40 kDa at varied concentration)?
The aggregate diameter was “significantly reduced diameters in a dose-dependent fashion”.

With heparin as the compound, how does the “aggregate control properties in PSC” value [6] read?
The value was “displayed aggregate control properties”.

Which “aggregate control properties in PSC” value [6] does the source give for pentosan polysulfate here?
The value was “displayed aggregate control properties”.
